Organism: Rattus norvegicus
Assay: Open TG-GATES - Regimen: Single
Assay type: toxicity, organism-based, Sprague-Dawley
Set-up: regimen Single, gender Male, age 6 weeks
Details: in vivo, ip, 0.003 mg/kg, route intraperitoneal injection, dose 3 ug/Kg, dose level Middle; for APTT / Bas / Eos / Fbg / Hb / Ht / Lym / MCH / MCHC / MCV / Mono / Neu / PT / Plat / RBC / Ret / WBC: tissue Blood; for KIDNEY_L / KIDNEY_R / KIDNEY_TOTAL: tissue Kidney; for LIVER: tissue Liver; for A/G / ALP / ALT / AST / BUN / CRE / Ca / Cl / DBIL / GLC / IP / K / LDH / Na / PL / RALB / TBIL / TC / TG / TP / gamma-GTP: tissue Plasma

Substance: H-KGDRLS-OH [TNF-ALPHA]
- TERMINAL_BW (3 h): 199 g
- APTT (3 h): 17.3 s
- Bas (3 h): 0%
- Eos (3 h): 0.4%
- Fbg (3 h): 265 mg/dL
- Hb (3 h): 13 g/dL
- Ht (3 h): 39.9%
- Lym (3 h): 70.4%
- MCH (3 h): 21.1 pg
- MCHC (3 h): 32.6%
- MCV (3 h): 64.9 fL
- Mono (3 h): 4.2%
- Neu (3 h): 23%
- PT (3 h): 15.9 s
- Plat (3 h): 112.9 x10_4/uL
- RBC (3 h): 614.6 x10_4/ul
- Ret (3 h): 9.2%
- WBC (3 h): 88.2 x10_2/uL
- KIDNEY_L (3 h): 0.9 g
- KIDNEY_R (3 h): 0.9 g
- KIDNEY_TOTAL (3 h): 1.8 g
- LIVER (3 h): 9.3 g
- A/G (3 h): 0.9
- ALP (3 h): 1480.4 IU/L
- ALT (3 h): 47.6 IU/L
- AST (3 h): 75.8 IU/L
- BUN (3 h): 10.8 mg/dL
- CRE (3 h): 0.2 mg/dL
- Ca (3 h): 10.8 mg/dL
- Cl (3 h): 104.8 meq/L
- DBIL (3 h): 0.01 mg/dL
- GLC (3 h): 162.2 mg/dL
- IP (3 h): 9.2 mg/dL
- K (3 h): 4.3 meq/L
- LDH (3 h): 68 IU/L
- Na (3 h): 141.6 meq/L
- PL (3 h): 137 mg/dL
- RALB (3 h): 2.5 g/dL
- TBIL (3 h): 0.052 mg/dL
- TC (3 h): 73 mg/dL
- TG (3 h): 61.8 mg/dL
- TP (3 h): 5.3 g/dL
- gamma-GTP (3 h): 1.4 IU/L
- TERMINAL_BW (6 h): 197.1 g
- APTT (6 h): 17.1 s
- Bas (6 h): 0%
- Eos (6 h): 0.4%
- Fbg (6 h): 321.4 mg/dL
- Hb (6 h): 13 g/dL
- Ht (6 h): 39.7%
- Lym (6 h): 63.4%
- MCH (6 h): 21.5 pg
- MCHC (6 h): 33%
- MCV (6 h): 65.1 fL
- Mono (6 h): 2.6%
- Neu (6 h): 32%
- PT (6 h): 15.1 s
- Plat (6 h): 110.6 x10_4/uL
- RBC (6 h): 610.4 x10_4/ul
- Ret (6 h): 8%
- WBC (6 h): 81.9 x10_2/uL
- KIDNEY_L (6 h): 0.9 g
- KIDNEY_R (6 h): 0.9 g
- KIDNEY_TOTAL (6 h): 1.8 g
- LIVER (6 h): 8.7 g
- A/G (6 h): 0.9
- ALP (6 h): 1155.6 IU/L
- ALT (6 h): 39.8 IU/L
- AST (6 h): 65.8 IU/L
- BUN (6 h): 8.6 mg/dL
- CRE (6 h): 0.2 mg/dL
- Ca (6 h): 10.7 mg/dL
- Cl (6 h): 105.6 meq/L
- DBIL (6 h): 0.008 mg/dL
- GLC (6 h): 170.4 mg/dL
- IP (6 h): 10.2 mg/dL
- K (6 h): 3.7 meq/L
- LDH (6 h): 72.8 IU/L
- Na (6 h): 143.4 meq/L
- PL (6 h): 147.6 mg/dL
- RALB (6 h): 2.5 g/dL
- TBIL (6 h): 0.06 mg/dL
- TC (6 h): 84.4 mg/dL
- TG (6 h): 27.2 mg/dL
- TP (6 h): 5.4 g/dL
- gamma-GTP (6 h): 1 IU/L
- TERMINAL_BW (9 h): 194.9 g
- APTT (9 h): 17.3 s
- Bas (9 h): 0%
- Eos (9 h): 0.4%
- Fbg (9 h): 380.6 mg/dL
- Hb (9 h): 12.9 g/dL
- Ht (9 h): 39.7%
- Lym (9 h): 66.2%
- MCH (9 h): 21.2 pg
- MCHC (9 h): 32.4%
- MCV (9 h): 65.5 fL
- Mono (9 h): 2.6%
- Neu (9 h): 29.8%
- PT (9 h): 15.4 s
- Plat (9 h): 104.9 x10_4/uL
- RBC (9 h): 606.6 x10_4/ul
- Ret (9 h): 8.3%
- WBC (9 h): 75.4 x10_2/uL
- KIDNEY_L (9 h): 0.9 g
- KIDNEY_R (9 h): 0.9 g
- KIDNEY_TOTAL (9 h): 1.8 g
- LIVER (9 h): 7.9 g
- A/G (9 h): 0.9
- ALP (9 h): 1301.4 IU/L
- ALT (9 h): 36.4 IU/L
- AST (9 h): 71.4 IU/L
- BUN (9 h): 7.6 mg/dL
- CRE (9 h): 0.2 mg/dL
- Ca (9 h): 10.6 mg/dL
- Cl (9 h): 105.6 meq/L
- DBIL (9 h): 0.004 mg/dL
- GLC (9 h): 159 mg/dL
- IP (9 h): 9.5 mg/dL
- K (9 h): 4 meq/L
- LDH (9 h): 46.6 IU/L
- Na (9 h): 142 meq/L
- PL (9 h): 155.4 mg/dL
- RALB (9 h): 2.5 g/dL
- TBIL (9 h): 0.062 mg/dL
- TC (9 h): 92.6 mg/dL
- TG (9 h): 25.2 mg/dL
- TP (9 h): 5.3 g/dL
- gamma-GTP (9 h): 1 IU/L
- TERMINAL_BW (24 h): 211 g
- APTT (24 h): 14.6 s
- Bas (24 h): 0%
- Eos (24 h): 1%
- Fbg (24 h): 361.4 mg/dL
- Hb (24 h): 12.8 g/dL
- Ht (24 h): 39.4%
- Lym (24 h): 77.6%
- MCH (24 h): 20.7 pg
- MCHC (24 h): 32.6%
- MCV (24 h): 63.6 fL
- Mono (24 h): 3.2%
- Neu (24 h): 14.8%
- PT (24 h): 15.5 s
- Plat (24 h): 115.8 x10_4/uL
- RBC (24 h): 619 x10_4/ul
- Ret (24 h): 8%
- WBC (24 h): 65.2 x10_2/uL
- KIDNEY_L (24 h): 0.9 g
- KIDNEY_R (24 h): 0.9 g
- KIDNEY_TOTAL (24 h): 1.8 g
- LIVER (24 h): 10 g
- A/G (24 h): 0.9
- ALP (24 h): 1666.2 IU/L
- ALT (24 h): 42.8 IU/L
- AST (24 h): 71.2 IU/L
- BUN (24 h): 16.4 mg/dL
- CRE (24 h): 0.2 mg/dL
- Ca (24 h): 11.1 mg/dL
- Cl (24 h): 106.8 meq/L
- DBIL (24 h): 0.01 mg/dL
- GLC (24 h): 177.8 mg/dL
- IP (24 h): 8.5 mg/dL
- K (24 h): 4.3 meq/L
- LDH (24 h): 74.6 IU/L
- Na (24 h): 142.4 meq/L
- PL (24 h): 155 mg/dL
- RALB (24 h): 2.6 g/dL
- TBIL (24 h): 0.042 mg/dL
- TC (24 h): 80.4 mg/dL
- TG (24 h): 80.8 mg/dL
- TP (24 h): 5.7 g/dL
- gamma-GTP (24 h): 1 IU/L
